In patent publication US10247722B2, “Use of compounds inhibiting apelin / APJ / GP130 signaling for treating cancer” (Centre National de la Recherche Scientifique (CNRS), priority 2014, dated 2019):
“Also recorded” adds a separate entry of the source. Positions of bridges follow the written chain, without caps; N, C: chain ends. No end group written: not given here.

Assays:
patient-derived GSCs [1] = assay: Secondary neurosphere/tumoursphere formation, Sox2/Nestin expression and trypan blue viability of GSCs; format: cell-based, human; settings: mitogen-free medium plus APJ agonist; ML233 1 mmol·l^1, 4 days (FIG. 13)
Akt/mTor pathway = assay: Western blot of Akt/mTor pathway activation (pAkt, pS6) in GSCs; format: cell-based, human
Experimental: FIG. 4. […] Scale bar: 40 μm. Data represent mean+sem on n=3 experiments.
(§1) FIG. 9. […] GSCs were pre-treated with APJ antagonist (MM54, 2 μmol·l^1) 45 min prior EC-CM or Apelin (Apin, 1 μmol·l^−1, 7 min) and protein lysates were analysed by western-blots with the indicated antibodies. Controls include GSC grown in complete (NS) and mitogen-free media (MF). b. STAT3 reporter activity was measured in mock, APJ, Gp130 and APJ+Gp130-transfected HEK-293T and exposed for 6 h to MF and Apin, together with either DMSO or MM54. c. GSCs were exposed to NS, EC-CM and Apin in the presence of DMSO or MM54. Tumoursphere formation per field of view (TS/FOV) was also quantified. d. Nude mice were xenografted with GSCs and bi-weekly intraperitoneal administration of vehicle (PBS) or APJ antagonist (MM54, 20 μmol·l^−1) started at week 4 (arrow). Tumour volume was measured weekly for 7 weeks. e. Frozen sections from GSC-xenografted tumours treated either with vehicle or MM54 were stained for blood vessels (PECAM), together with either Ki67 (proliferation marker or Nestin and nuclei. Percentage of dead cells was estimated by TUNEL. Quantification of both staining is shown. Data represent mean+sem on n=3 experiments. Two-way ANOVA: *P<0.05; **P<0.01.

patient-derived GSCs [2] = assay: Secondary neurosphere/tumoursphere formation, Sox2/Nestin expression and trypan blue viability of GSCs; format: cell-based, human
Experimental: as §1
FIG. 11. […] Apelin secretion was measured by EIA in positive templates (C+), mitogen-free media (MF), human brain endothelial cell (EC) and GSC conditioned media (CM). RT-PCR for Apelin and Actin is also shown for EC and GSC. b. Confocal analysis of Nestin (green), Sox2 (red) and nuclei (DAPI, blue) in GSC grown in complete media (NS), in MF, in EC-CM or MF containing only recombinant Apelin (Apin, 1 μmol·l^−1). Scale bar: 40 um. c-d. GSCs #1-16 were cultured in MF or Apin. Quantification of tumourspheres per field of view (TS/FOV) (c) and trypan blue exclusion quantification (Viable cells %) (d) was performed. e. EC received non-silencing RNA (siC) or Apin targeting siRNA (siApin). Apin extinction was checked by RT-PCR and enzyme immunoassay. f. GSCs were cultured with siC and siApin EC-CM, as prepared in (e). Confocal analysis was performed on Nestin (green), Sox2 (red) and DAPI (blue) co-staining. Scale bar: 40 μm. g-h. siC or siApin EC-CM treated GSCs were processed as in (c, d). i-k. GSCs were cultured with NS, MF, siC EC-CM and siApinEC-CM alone or plus Apin. Phase pictures are shown (i) Scale bar: 25 μm, TS/FOV and viable cells were also analysed (j, k). Data represent mean+sem on n=3 experiments. T-test: *P<0.05; **P<0.01; ***P<0.001.
GSCs were dissociated by up-and-down pipetting and cultured in a 48-well plate format. […] NS counts were blindly performed on five random fields of view (fov) and the mean of neurosphere/fov was calculated from 3 independent experiments. Statistical analyses were performed using 2-way Student's test (Excel Microsoft Office).

STAT3 [3] = settings: recombinant Apelin 1 μM
Experimental: A. Western-blot analysis for pY-STAT3, pS-STAT3 and Total STAT3 in GSC#1 treated with complete media (NS34), deprived medium (SF), endothelial cell-conditioned media (EC-CM), or SF supplemented with Apelin (1 μM), for the indicated times. B. GSC#1 received non-silencing siRNA (sic) or siRNA targeting APJ. GSC#1 were treated with EC-CM and analyzed by western-blots using the indicated antibodies (upper panel). Alternatively, GSC#1 received EC-CM prepared from non-silencing shRNA (shC) or shRNA targeting Apelin (lower panel). […] GSC#1 received non-silencing siRNA (siC) or siRNA targeting GP130, were stimulated with EC-CM three days later, and protein lysates were analyzed by western-blots, using the indicated antibodies. D. GSC#1 were pre-treated with GP130-blocking antibody 45 min prior EC-CM or Apelin stimulation and protein lysates were analyzed by western-blots. E. Neurosphere assay was conducted in GSC#1 treated with siRNA as in (C) or with GP130-blocking antibody as in (D).
Proteins were collected in TNT buffer (10 mM Tris-HCl pH 7.5, 150 mM NaCl, 1% Triton X100, 2 mM EDTA) plus protease inhibitors (Sigma), 200 mM NaF and 0.1 mM Na3VO4. Equal amounts of proteins (microBCA kit, Pierce) were separated with 4-12% Nupage gels (Invitrogen) and transferred onto PVDF membranes (Thermo Fisher Scientific). […]

STAT3 [4] = assay: STAT3 luciferase reporter assay in HEK-293T co-expressing APJ and Gp130; format: cell-based, human; settings: HEK-293T co-expressing APJ and Gp130, Apelin 6 h
Experimental: FIG. 9. Pharmacological inhibition of APJ impairs tumour growth. a. GSCs were pre-treated with APJ antagonist (MM54, 2 μmol·l^1) 45 min prior EC-CM or Apelin (Apin, 1 μmol·l^−1, 7 min) and protein lysates were analysed by western-blots with the indicated antibodies. Controls include GSC grown in complete (NS) and mitogen-free media (MF). b. STAT3 reporter activity was measured in mock, APJ, Gp130 and APJ+Gp130-transfected HEK-293T and exposed for 6 h to MF and Apin, together with either DMSO or MM54. c. GSCs were exposed to NS, EC-CM and Apin in the presence of DMSO or MM54. Tumoursphere formation per field of view (TS/FOV) was also quantified. d. […] Tumour volume was measured weekly for 7 weeks. e. Frozen sections from GSC-xenografted tumours treated either with vehicle or MM54 were stained for blood vessels (PECAM), together with either Ki67 (proliferation marker or Nestin and nuclei. Percentage of dead cells was estimated by TUNEL. Quantification of both staining is shown. Data represent mean+sem on n=3 experiments. Two-way ANOVA: *P<0.05; **P<0.01.
HEK-293T cells were co-transfected with HA-APJ, GP130, STAT3 Luciferase Reporter Vector (Affymetrix) and Renilla (Promega). […] Then, cells were lysed and STAT3 luciferase activity was measured using the Dual-Luciferase Reporter Assay (Promega). […]

[5] = tested on: human GSCs implanted into immunocompromised mouse flanks; assay: Subcutaneous GSC xenograft in nude mice, tumour growth and histology; format: in vivo
Experimental: FIG. 9. Pharmacological inhibition of APJ impairs tumour growth. a. GSCs were pre-treated with APJ antagonist (MM54, 2 μmol·l^1) 45 min prior EC-CM or Apelin (Apin, 1 μmol·l^−1, 7 min) and protein lysates were analysed by western-blots with the indicated antibodies. Controls include GSC grown in complete (NS) and mitogen-free media (MF). b. STAT3 reporter activity was measured in mock, APJ, Gp130 and APJ+Gp130-transfected HEK-293T and exposed for 6 h to MF and Apin, together with either DMSO or MM54. c. GSCs were exposed to NS, EC-CM and Apin in the presence of DMSO or MM54. Tumoursphere formation per field of view (TS/FOV) was also quantified. d. Nude mice were xenografted with GSCs and bi-weekly intraperitoneal administration of vehicle (PBS) or APJ antagonist (MM54, 20 μmol·l^−1) started at week 4 (arrow). Tumour volume was measured weekly for 7 weeks. e. Frozen sections from GSC-xenografted tumours treated either with vehicle or MM54 were stained for blood vessels (PECAM), together with either Ki67 (proliferation marker or Nestin and nuclei. Percentage of dead cells was estimated by TUNEL. Quantification of both staining is shown. Data represent mean+sem on n=3 experiments. Two-way ANOVA: *P<0.05; **P<0.01.
All animal studies were carried out according to French Ministry approved protocols (agreement number #00754.02), in compliance with the European Convention for the Protection of Vertebrate Animals used for Experimental and other Scientific Purposes (ETS 123). Six weeks old females BALB/c nude mice (Janvier) were subcutaneously injected with 1*10^6 cells in 100 μl 1:1 PBS and growth factors-free matrigel (Corning). For tumour initiation (FIG. 9), mice were examined weekly in the search for tumours and sacrificed 7 weeks after implantation. For pharmacological studies (FIG. 6), mice were treated twice per week with MNI54 or vehicle (DMSO) diluted in PBS (100 μl) (intraperitoneal injection for 7 weeks), once tumours were detected (4 weeks post-implantation).
Upon sacrifice, tumours were extracted, embedded in OCT (Tissue Tek) in biomoulds, frozen by immersion in dry ice-chilled isopentane for 1 min, and stored at −80° C. for further analysis.
For immunostaining, embedded OCT-tumours were cut in 7 μm sections using a CM350S Leica cryostat (Histology platform, Institut Cochin, Paris). […]
A minimum of 3 tumour sections per condition was used, with at least 5 different fields of view (fov) each. For blood vessel surface analysis, PECAM pixel intensity was calculated in each fov and an average+sem of the total fov was represented. Cell proliferation was assessed through the percentage of Ki67-positive cells normalized to the total cell number of cells in DAPI. Nestin positive cells were counted per fov.

[6] = tested on: mice intracranially implanted with GSCs; assay: Orthotopic (intracranial) GSC #9 implantation in nude mice; format: in vivo
Experimental: FIG. 15. Anti-tumor effect of APJ inhibition. Nude mice were implanted with GSC #9 orthotopically (10^5 cells) and treated tri-weekly with intraperitoneal injection of vehicle (PBS) or APJ antagonist (MM54, 20 μmol·l^−, 4 mg/kg) starting at day 16 (arrow). Appearance of neurological symptoms (a) and weight at sacrifice (b) were monitored. Kaplan-Meier survival curve of GSC #9-bearing mice is shown (c). Data represent mean+sem of n=3 experiments. Two-way ANOVA: *P<0.05; **P<0.01.

[7] = Toxicity observation in MM54-treated mice (body weight, heart/body weight ratio, heart anatomy); format: in vivo; settings: ectopic tumour-bearing mice, bi-weekly over 7 weeks; sham-operated female nude mice
Experimental: FIG. 16. […] Gain weight was measured in ectopic tumour bearing mice that received bi-weekly treatment over 7 weeks. b-d. Female nude mice underwent intracranial implantation of PBS (sham surgery) and then received DMSO and MM54 17 days after PBS implantation. Body weight was monitored long the experiment (a). Heart/body weight ratios were calculated at the day of sacrifice (c). General anatomy of hearts from DMSO and MM54-treated mice using the Masson Trichrome staining (d).

[8] = intracranial GSC #9, intraperitoneal MM54 thrice a week (4 mg/kg) from day 16

## CC1=CC(=O)C(C2CCCCC2)=C/C1=N\OS(=O)(=O)c1ccccc1 [ML233]
patient-derived GSCs [1]
  GSC survival: promote GSC survival; also recorded: promotes GSC survival through APJ/GP130

## Apelin
Akt/mTor pathway; recombinant Apelin 1 μM, no other exogenous mitogen
  Activation of the Akt/mTor pathway in GSCs (Akt, S6 phosphorylation): able to activate this pathway in a similar extend than EC-CM; also recorded: triggered the activation of the mTor signalling cascade
patient-derived GSCs [2]; exogenous Apelin added into Apelin-depleted endothelial cell-derived media
  EC-CM-sustained self-renewal and viability of GSCs: restored
patient-derived GSCs [2]; recombinant Apelin 1 μM in mitogen-free media, panel of 16 patient-derived GSCs
  GSC self-renewal (secondary neurosphere formation and Sox2/Nestin expression): sufficient to support self-renewal; also recorded: maintained
patient-derived GSCs [2]; recombinant Apelin in mitogen-free media, trypan blue exclusion
  Mitogen deprivation-induced cell death: hindered
STAT3 [3]
  Activation of STAT3 signaling in GSCs: able to activate this signaling pathway
patient-derived GSCs [1]
  GSC survival: has an effect on GSCs survival

## Apelin 13
patient-derived GSCs [1]
  GSC survival: promote GSC survival

## Apelin 36: 36 amino acid peptide corresponding to the sequence 42-77 of the Apelin proprotein; APJ agonist (LVQPRGSRNGPGPWQGGRRKFRRQRPRLSHKGPMPF; homo sapiens; Apelin 36 aa - homo sapiens)
patient-derived GSCs [1]
  GSC survival: promote GSC survival

## cyclo(1-6)CRPRLC-KH-cyclo(9-14)CRPRLC (CRPRLCKHCRPRLC; bridge 1-6, 9-14) [MM54, APJ antagonist (Macaluso N J et al., 2011), supplied by Dr. Robert Glenn]
Akt/mTor pathway; pre-treatment 45 min prior EC-CM or Apelin (1 μmol·l^−1, 7 min), MM54 2 μmol·l^−1
  Inhibition of EC-CM- and Apelin-induced Akt/mTor activation in GSCs: blocks; also recorded: alleviated
STAT3 [4]
  Inhibition of Apelin-mediated STAT3 activation (STAT3 reporter activity): reduced
STAT3 [4]; listed as pharmacological antagonist of APJ
  Inhibition of Apelin-mediated STAT3 activation (STAT3 reporter activity): blocked
patient-derived GSCs [2]; GSCs cultured with EC-CM
  Neurosphere number and size, with Sox2/Nestin: dramatically decreased
patient-derived GSCs [2]; GSCs exposed to EC-CM or Apelin in presence of DMSO or MM54
  Endothelial Apelin-dependent GSC self-renewal and survival (tumoursphere formation): blocks; also recorded: impaired
[5]; bi-weekly intraperitoneal MM54
  GSC number in residual tumours, as scored with Nestin: decreased
  Overall cell proliferation (Ki67) and viability (TUNEL) in residual tumours: decreased
  Tumour vascularisation (PECAM): reduction
[5]; bi-weekly intraperitoneal MM54 (20 μmol·l^−1) from week 4, 7 weeks
  Tumour growth (tumour volume): capable of in vivo inhibiting tumor growth once initiated; also recorded: restrain tumor growth and expansion; also recorded: strongly hindered
[6]; intracranial GSC #9, intraperitoneal MM54 thrice a week (20 μmol·l^−, 4 mg/kg) from day 16
  Neurological symptoms: significantly abolish
[6]; [8]
  Loss weight associated with tumour progression: rescue
  Overall survival of tumour-bearing mice (Kaplan-Meier): dramatically increased
[6]; intracranial GSCs, intraperitoneal MM54 thrice a week
  Tumour size: reduced
[7]
  Toxic effects of treatment: does not exert any obvious toxic effects
